Each structure is given as a SMILES string. Read-outs that look alike come from different tables or passages of the source.

The conditions of data set [1]: earlier preclinical studies; cited from earlier work.
Data set [2] concerns Non-Iron-Overloaded Rodents. The note with it: rats, po, 300 μmol/kg, historical data; cited from earlier work.
Data set [3] relates to Iron-Overloaded Cebus apella Primates. The note with it: Cebus apella, po, 150 μmol/kg, historical data; cited from earlier work.
A short description of data set [4]: Chelator tissue distribution in rodents. It is filed as in vivo, rat (male Sprague-Dawley). To be noted: rats, sc, 300 μmol/kg; for concentration at 0.5 h: male, Sprague-Dawley, rat, plasma. The method, then: Collection of Tissue Distribution Samples from Rodents: Male Sprague-Dawley rats (250-350 g) were given a single sc injection of the monosodium salts of 6 and 9 prepared as described above at a dose of 300 μmol/kg. At times 0.5, 1, 2, and 4 h after dosing (n=3 rats per time point) the animals were euthanized by exposure to CO2 gas. Blood was obtained via cardiac puncture into vacutainers containing sodium citrate. The blood was centrifuged, and the plasma was separated for analysis. The liver, heart, kidneys, and pancreas were then removed from the animals. […] J. Med. Chem. 2006, 49, 2772-2783]. In the current study, tissues from the (S)-3′-(HO)-DADFT-PE (9) and (S)-5′-(HO)-DADFT-PE (6) treated rats were prepared for HPLC analysis by homogenizing them in 0.5 N HClO4 at a ratio of 1:3 (w/v). Then, as a rinse, CH3OH at a ratio of 1:3 (w/v) was added and the mixture was stored at −20° C. for 30 min. This homogenate was centrifuged. The supernatant was diluted with mobile phase A (95% buffer [25 mM KH2PO4, pH 3.0]/5% CH3CN), vortexed, and filtered with a 0.2 μm membrane. Analytical separation was performed on a Discovery RP Amide C16 HPLC system with UV detection at 310 nm as described previously [Bergeron, R. J., Wiegand, J., Weimar, W. R., McManis, J. S., Smith, R. E. and Abboud, K. A. Iron Chelation Promoted by Desazadesferrithiocin Analogues: An Enantioselective Barrier. Chirality 2003, 15, 593-599; Bergeron, R. J., Wiegand, J., Ratliff-Thompson, K. and Weimar, W. R. The Origin of the Differences in (R)- and (S)-Desmethyldesferrithiocin: Iron-Clearing Properties. Ann. N.Y. Acad. Sci. 1998, 850, 202-216]. Mobile phase and chromatographic conditions were as follows: solvent A, 5% CH3CN/95% buffer; solvent B, 60% CH3CN/40% buffer. The concentrations were calculated from the peak area fitted to calibration curves by nonweighted least-squares linear regression with Rainin Dynamax HPLC Method Manager software (Rainin Instrument Co.).

In data set [5] the test system is Non-Iron-Overloaded Rodents. Put plainly: Chelator-induced iron clearance in non-iron-overloaded, bile duct-cannulated rats. It is filed as in vivo, rat (male Sprague-Dawley). To be noted: po, 300 μmol/kg; for ICE of the polyether relative to that of the parent ligand: 1 vs 3, 4 vs 6, 7 vs 9. An excerpt: Chelator-Induced Iron Clearance in Non-Iron-Overloaded Rodents. […] J. Med. Chem. 2006, 49, 2772-2783]. Recall that iron-clearing efficiency (ICE) is defined as (net iron excretion)/(total iron-binding capacity of the chelator), expressed as a percent. The relative ICE values of compounds 1 and 2 were in keeping with their log Papp values: the more lipophilic, the larger log Papp, the more efficient the chelator. […] However, the ICE trend was in keeping with the biliary ferrokinetics (FIG. 3) and liver concentration of the chelators, for example, 3>1 (FIG. 4).
Cannulation of Bile Duct in Non-Iron-Overloaded Rats has been described previously. […]. […] The urine sample(s) was taken at 24 h intervals. Sample collection and handling are as previously described [Bergeron, R. J., Streiff, R. R., Creary, E. A., Daniels, R. D., Jr., King, W., Luchetta, G., Wiegand, J., Moerker, T. and Peter, H. H. A Comparative Study of the Iron-Clearing Properties of Desferrithiocin Analogues with Desferrioxamine B in a Cebus Monkey Model. Blood 1993, 81, 2166-2173; Bergeron, R. J., Streiff, R. R., Wiegand, J., Vinson, J. R. T., Luchetta, G., Evans, K. M., Peter, H. and Jenny, H.-B. A Comparative Evaluation of Iron Clearance Models. Ann. N.Y. Acad. Sci. 1990, 612, 378-393].
(§1) In the iron-clearing experiments, the rats were given a single 300 μmol/kg dose of drugs 1-9 orally (po).
(§2) J. Med. Chem. 1999, 42, 2432-2440].

The subject of data set [6] is Iron-Overloaded Cebus apella Primates. Description: Chelator-induced iron clearance in iron-overloaded Cebus apella primates. It is filed as in vivo. To be noted: po, 75 μmol/kg.
Source text: Chelator-Induced Iron Clearance in Iron-Overloaded Cebus apella Primates. The iron-clearance data for all three sets of ligands are presented (Table 2). […] J. Med. Chem. 2003, 46, 1470-1477]>1 (16.8±7.2%) [Bergeron, R. J., Wiegand, J., McManis, J. S., McCosar, B. H., Weimar, W. R., Brittenham, G. M. and Smith, R. E. Effects of C-4 Stereochemistry and C-4′ Hydroxylation on the Iron Clearing Efficiency and Toxicity of Desferrithiocin Analogues. J. Med. Chem. 1999, 42, 2432-2440], the increase is not significant. Although (S)-4′-(HO)-DADFT-PE (3) is the least lipophilic chelator in the 1-3 series, it is just as efficient (ICE, 25.4±7.4%) [Bergeron, R. J., Wiegand, J., McManis, J. S., Vinson, J. R. T., Yao, H., Bharti, N. and Rocca, J. R. (S)-4,5-Dihydro-2-(2-hydroxy-4-hydroxyphenyl)-4-methyl-4-thiazolecarboxylic Acid Polyethers: A Solution to Nephrotoxicity.
The monkeys (3.5-4 kg) were iron overloaded with intravenous iron dextran as specified in earlier publications to provide about 500 mg of iron per kg of body weight [Bergeron, R. J., Streiff, R. R., Wiegand, J., Luchetta, G., Creary, E. A. and Peter, H. H. A Comparison of the Iron-Clearing Properties of 1,2-Dimethyl-3-hydroxypyrid-4-one, 1,2-Diethyl-3-hydroxypyrid-4-one, and Deferoxamine. Blood 1992, 79, 1882-1890]; the serum transferrin iron saturation rose to between 70 and 80%. At least 20 half-lives, 60 d [Wood, J. K., Milner, P. F. and Pathak, U. N. The Metabolism of Iron-dextran Given as a Total-dose Infusion to Iron Deficient Jamaican Subjects. Br. J. Haematol. 1968, 14, 119-129], elapsed before any of the animals were used in experiments evaluating iron-chelating agents.
Fecal and urine samples were collected at 24-h intervals and processed as described previously [Bergeron, R. J., Streiff, R. R., Creary, E. A., Daniels, R. D., Jr., King, W., Luchetta, G., Wiegand, J., Moerker, T. and Peter, H. H. A Comparative Study of the Iron-Clearing Properties of Desferrithiocin Analogues with Desferrioxamine B in a Cebus Monkey Model. Blood 1993, 81, 2166-2173; Bergeron, R. J., Streiff, R. R., Wiegand, J., Vinson, J. R. T., Luchetta, G., Evans, K. M., Peter, H. and Jenny, H.-B. A Comparative Evaluation of Iron Clearance Models. Ann. N.Y. Acad. Sci. 1990, 612, 378-393; Bergeron, R. J., Wiegand, J. and Brittenham, G. M. HBED: A Potential Alternative to Deferoxamine for Iron-Chelating Therapy. Blood 1998, 91, 1446-1452]. Briefly, the collections began 4 d prior to the administration of the test drug and continued for an additional 5 d after the drug was given. Iron concentrations were determined by flame atomic absorption spectroscopy as presented in other publications [Bergeron, R. J., Streiff, R. R., Wiegand, J., Vinson, J. R. T., Luchetta, G., Evans, K. M., Peter, H. and Jenny, H.-B. A Comparative Evaluation of Iron Clearance Models. Ann. N.Y. Acad. Sci. 1990, 612, 378-393; Bergeron, R. J., Wiegand, J., Wollenweber, M., McManis, J. S., Algee, S. E. and Ratliff-Thompson, K. Synthesis and Biological Evaluation of Naphthyldesferrithiocin Iron Chelators. J. Med. Chem. 1996, 39, 1575-1581].
as §1, §2

Data set [7] in a line: Iron clearance performance ratio in primates versus rodents. It is filed as in vivo, Cebus apella / rat. To be noted: mean ICE primates / mean ICE rodents. The source says:
Iron Clearance Performance Ratio in Primates versus Rodents. The performance ratio (PR), defined as the mean ICEprimates/ICErodents, is noteworthy (Table 3). […] The mean ICE for the primate group can be compared with the mean ICE of the rodent group (Table 3). […] This is not the case with the 5′-polyether (6), whose ICE is virtually identical in the two species. The largest differences in performance ratios generally unfold with the parent ligands 1, 4, and 7.

`COc1ccc(C2=N[C@@](C)(C(=O)O)CS2)c(O)c1` [Compound 2, (S)-4,5-dihydro-2-(2-hydroxy-4-methoxyphenyl)-4-methyl-4-thiazolecarboxylic acid]: in data set [1], the “toxicity / nephrotoxicity in words” value was “unacceptably toxic”. Further, the “Iron-Clearing Efficiency (%)” value in data set [2] was 6.6±2.8%; in data set [3], 24.4±10.8%.
As for `COCCOCCOCCOc1ccc(O)c(C2=N[C@@](C)(C(=O)O)CS2)c1` [Compound 6, (S)-4,5-dihydro-2-[2-hydroxy-5-(3,6,9-trioxadecyloxy)phenyl]-4-methyl-4-thiazolecarboxylic acid], in data set [4] (0.5 h), the concentration at 0.5 h was 324 ± 20 µM, the kidney concentration came to 643±92 nmol/g wet weight and the liver concentration is 483±85 nmol/g wet weight. Moreover, in data set [4], the “decrease of liver concentration from 0.5 h to 1 h” value is 36%. In data set [4] (1 h), the “drop in plasma concentration relative to 0.5 h” value is given as 39% and the kidney concentration came to 435±111 nmol/g wet weight. In data set [4] (2 h), the “drop in plasma concentration relative to 0.5 h” value came out at 54%, the kidney concentration is reported as 321±20 nmol/g wet weight and the pancreas concentration entry is recorded as “≈ 30 nmol/g wet weight”. Moreover, in data set [4] (4 h), the “drop in plasma concentration relative to 0.5 h” value is reported as 82% and the kidney concentration is given as 116±65 nmol/g wet weight. Further, in data set [5], the “Iron-Clearing Efficiency (%)” value is 8.0±1.8%; the “ICE of the polyether relative to that of the parent ligand” value worked out at 800%; the “relative percentages of the iron excreted in the bile and urine” value was 98/2. Moreover, in data set [6], the “Iron-Clearing Efficiency (%)” value is 8.1±2.8%; the “relative percentages of the iron excreted in the stool and urine” value is given as 56/44.
With `COCCOCCOCCOc1cccc(C2=N[C@@](C)(C(=O)O)CS2)c1O` [Compound 9, (S)-4,5-dihydro-2-[2-hydroxy-3-(3,6,9-trioxadecyloxy)phenyl]-4-methyl-4-thiazolecarboxylic acid], in data set [4] (0.5 h), the concentration at 0.5 h worked out at 62 ± 24 µM, the kidney concentration worked out at 280±26 nmol/g wet weight and the liver concentration came out at 242±38 nmol/g wet weight. In addition, in data set [4] (1 h), the “drop in plasma concentration relative to 0.5 h” value came to 26%, the kidney concentration is given as 259±35 nmol/g wet weight and the liver concentration worked out at 318±46 nmol/g wet weight. Besides, in data set [4] (2 h), the “drop in plasma concentration relative to 0.5 h” value came to 61%, the kidney concentration amounted to 145±27 nmol/g wet weight and the pancreas concentration was found to be 16 nmol/g wet weight. In addition, in data set [4] (4 h), the “drop in plasma concentration relative to 0.5 h” value is 79% and the kidney concentration amounted to 90±7 nmol/g wet weight. In addition, in data set [5], the “ICE of 3′-polyether relative to 4′-polyether (3), more effective” value was approximately 200% and the “ICE of the polyether relative to that of the parent ligand” value amounted to 230%. Besides, in data set [5] (48 h sample collection period), the “Iron-Clearing Efficiency (%)” value turned out to be 10.6±4.4%; the “relative percentages of the iron excreted in the bile and urine” value is recorded as 95/5. Further, in data set [6], the “Iron-Clearing Efficiency (%)” value worked out at 24.5±7.6%; the “relative percentages of the iron excreted in the stool and urine” value is on record as 72/28.
Regarding `C[C@]1(C(=O)O)CSC(c2cc(O)ccc2O)=N1` [drawing 24], the “ICE Primate/ICE Rodent (performance ratio)” value in data set [7] was found to be 12.6.
As to `COc1ccc(O)c(C2=N[C@@](C)(C(=O)O)CS2)c1` [drawing 25], the “ICE Primate/ICE Rodent (performance ratio)” value in data set [7] came to 3.0.
On to `COCCOCCOCCOc1ccc(O)c(C2=N[C@@](C)(C(=O)O)CS2)c1` [drawing 26], for which, in data set [7], the “ICE Primate/ICE Rodent (performance ratio)” value is reported as 1.0.
`C[C@]1(C(=O)O)CSC(c2cccc(O)c2O)=N1` [drawing 27]: the “ICE Primate/ICE Rodent (performance ratio)” value in data set [7] is listed as 5.0.
Turning to `COc1cccc(C2=N[C@@](C)(C(=O)O)CS2)c1O` [drawing 28], in data set [7], the “ICE Primate/ICE Rodent (performance ratio)” value is 1.8.
As to `COCCOCCOCCOc1cccc(C2=N[C@@](C)(C(=O)O)CS2)c1O` [drawing 29], the “ICE Primate/ICE Rodent (performance ratio)” value in data set [7] turned out to be 2.3.

The record behind these values is US9174948B2, “Desferrithiocin polyether analogues” (University of Florida Research Foundation, Inc., priority 2007, dated 2015).
